Results on four compounds are retold here after US20200163913A1 (Shanghai Huali Biomedical Co., Ltd., priority 2017, published 2020).

Where two headings read alike, the source gives them in different places.

One data set relates to Tubulin. The experiment in a line: Tubulin polymerization activity test. Type of data set: biochemical. The conditions noted are these: tubulin 4.8 mg/ml, 37° C., 340 nm; read-out: IC50 (Table 3, tubulin polymerization test). The method, then:
Tubulin (4.8 mg/ml) protein was mixed with the test compound in a PEM buffer (100 mM PIPES, 1 mM MgCl2 and 1 mM EGTA) containing 1 mM GTP and 5% glycerol. A SPECTRA MAX 190 (Molecular Device) spectrophotometer was used to monitor the microtubule polymerization at 37° C. by light scattering at 340 nm, and the microtubule polymerization was calculated from the absorbance value. Each sample was tested three times at ten different concentrations.

For data set [1], the system named is human colon cancer cell HCT-116. Nature of the data set: CCK-8 cell proliferation inhibition, HCT-116. Type of data set: cell-based. The method, then:
(§1) Take more than 90% of live cells for experiments. Cell proliferation inhibition test uses EnoGeneCell™ Counting Kit-8 (CCK-8) cell viability detection kit. Cells are digested and counted to make a cell suspension with a concentration of 1×10^5 cells/mL, 100 μL of cell suspension (1×10^4 cells per well) was added to each well of a 96-well plate; Incubate in a 5% CO2 incubator for 24 hours; add 100 μL of the corresponding drug-containing culture medium to each well, and set a negative control group, a vehicle control group, and a positive control group, with 5 replicates in each group; place the 96-well plate at 37° C.

Data set [2] has as its system human cervical cancer cell HeLa. The experiment in a line: CCK-8 cell proliferation inhibition, HeLa. In kind it is cell-based. The method, then:
as §1

For data set [3], the system named is human gastric cancer cell MKN45. The experiment in a line: CCK-8 cell proliferation inhibition, MKN45. Type of data set: cell-based. The conditions noted are these: read-out: IC50 MKN45. How it is done:
as §1

Data set [4] has as its system human liver cancer cell HepG2. Nature of the data set: CCK-8 cell proliferation inhibition, HepG2. In kind it is cell-based. The conditions noted are these: read-out: IC50 HepG2. How it is done: as §1
Data set [5] is described as follows: Acute toxicity test of single intragastric administration of mice. The conditions noted are these: both sexes, Kunming, mouse, in vivo, po, 14 days observation. The method, then: Kunming mice (body weight: 17-22 g, male and female), randomly divided according to body weight. […] The doses were 150, 130, 120, 110, 100, 90, 80, 70, 60, 50, 40, 30 mg/kg by single intragastric administration, 0.25 h, 0.5 h, 1 h, 2 h after administration Observe once every 4 h, 24 h, and then record the mortality, then observe it once a day, record the mortality for 14 days, and sacrifice the undead mice on the 15th day for pathological dissection.

Data set [6] has as its system human lung cancer cell A549. The experiment in a line: CCK-8 cell proliferation inhibition, A549. Type of data set: cell-based. The method, then:
as §1

Another data set concerns sarcoma S180. Nature of the data set: Tumor inhibition rate on sarcoma S180 mouse transplantation tumor. To be noted: for tumor observation: 8th day after administration; for Inhibition rate (tumor weight): dose 25 mg/kg, d0-d12 7 times, sacrifice day 14. In kind it is in vivo, mice. From the text: After 1 week of adaptation, the mice were inoculated subcutaneously with sarcoma S180 tumor tissue. After the tumor grew 100-300 mm3, the animals were randomly divided into groups.

Data set [7] has as its system human gastric cancer cell MGC-803. Nature of the data set: CCK-8 cell proliferation inhibition, MGC-803. In kind it is cell-based. The conditions noted are these: read-out: IC50 MGC803. The method, then:
as §1

The next data set concerns the target Arylsulfatase. Nature of the data set: Arylsulfatase activity assay in vitro. In kind it is biochemical. The conditions noted are these: p-nitrophenyl sulfate substrate, 405 nm; read-out: IC50 sulfatase. How it is done: Weigh an appropriate amount of the test compound and dissolve it in dimethyl sulfoxide. Dilute it with Tris-HCl buffer for 2, 5, 10, 20, 50, 100, 200, 500, 1000, 2000, 5000, and 10,000 times. Add another dilution gradient to the sample. Arylsulfatase and potassium p-nitrophenyl sulfate are directly dissolved in Tris-HCl buffer. 40 μL of the test compound, 50 μL of arylsulfatase and 50 μL of potassium p-nitrobenzene sulfate were added to a 96-well plate for reaction. A blank control without enzymes and a standard control without test compounds are used. The volume is made up with Tris-HCl buffer. 405 nm detection in the microplate reader, each sample is measured for 40 times, and the interval is 30 s. The representative time node within the time period with good linearity of the absorbance value are selected for data analysis. The measured absorbance value are subtracted from the background value of the blank control and the initial value when the reaction time are 0. For comparison, calculate the inhibition rate at different concentrations, and use the built-in forecast function of excel to predict the IC50 value.

Where [8] appears, read: Homo sapiens, HCT-116, 72 h, CCK-8, 72 h, read-out: IC50 HTC116.
The mark [9] stands for this setting: Homo sapiens, HCT-116, running text, read-out: IC50 HCT-116.
Setting [10] is: Homo sapiens, HeLa, 72 h, CCK-8, 72 h, read-out: IC50 Hela.
[11] abbreviates: Homo sapiens, HeLa, read-out: IC50 HeLa.
[12] abbreviates: Homo sapiens, HepG2, 72 h, CCK-8, 72 h.
[13] abbreviates: Homo sapiens, HepG2, running text.
Where [14] appears, read: A549, CCK-8, 72 h, read-out: IC50 A549.

For orientation: IC50 means the concentration needed to halve the response being measured. A word on the LD50: it is the dose expected to kill half of the subjects tested. Regarding `COc1ccc(/C=C\c2cc(OC)c(OC)c(OC)c2)cc1OS(N)(=O)=O` [Compound A1-1, (Z)-3,4,5-trimethoxy-4′-methoxy-3′-sulfamate stilbene], the IC50 with Tubulin came out at 6600 nM; in data set [1] (setting [8]), 222 nM; in data set [1] (setting [9]), 222 nM; in data set [2] (setting [10]), 458 nM; in [2] (setting [11]) it was 340 nM; in data set [3] (MKN-45, 72 h, CCK-8, 72 h) it was 599 nM. Besides, the IC50 is less than 600 nM in data set [3] (MKN-45, running text); 335 nM in [4] (setting [12]); less than 1000 nM in [4] (setting [13]); 481 nM in data set [6] (setting [14]); less than 500 nM in data set [6] (A549, read-out: IC50 A549); 298 nM in data set [7] (MGC-803, 72 h, CCK-8, 72 h). Also, the IC50 in data set [7] (MGC-803, running text) was less than 600 nM; at Arylsulfatase it was 6160 nM. This compound gave an LD50 at 14 days in [5] of 106 mg/kg. Also, in the data set on sarcoma S180, the tumor observation result is “shrinking trend”. For the same compound, the “Inhibition rate (tumor weight)” value in the data set with sarcoma S180 amounted to 42%.
On to `COc1ccc(/C=C/c2cc(OC)c(OC)c(OC)c2)cc1OS(N)(=O)=O` [Compound A1-2, (E)-3,4,5-trimethoxy-4′-methoxy-3′-sulfamate stilbene], for which the IC50 in the data set with Tubulin was 55700 nM; in data set [1] (setting [8]) it was 1570 nM; in [2] (setting [10]), 4500 nM; in data set [3] (MKN-45, 72 h, CCK-8, 72 h), 10500 nM; in [4] (setting [12]), 870 nM; in data set [4] (setting [13]) it was less than 1000 nM. The IC50 turned out to be 11400 nM in [6] (setting [14]); 2980 nM in data set [7] (MGC-803, 72 h, CCK-8, 72 h); 12900 nM at Arylsulfatase.
For `CCOc1ccc(/C=C\c2cc(OC)c(OC)c(OC)c2)cc1OS(N)(=O)=O` [Compound A2-1, (Z)-3,4,5-trimethoxy-4′-ethoxy-3′-sulfamate stilbene], the IC50 in data set [1] (setting [8]) is 446 nM; in data set [1] (setting [9]), 446 nM; in [1] (listed as (Z)-3,4,5-trimethoxy-4′-ethoxy-3′-aminosulfamatestilbene, read-out: IC50 HCT-116), less than 500 nM; in data set [2] (setting [10]), 480 nM; in data set [2] (setting [11]), 480 nM; in data set [2] (listed as (Z)-3,4,5-trimethoxy-4′-ethoxy-3′-aminosulfamatestilbene, read-out: IC50 HeLa), less than 500 nM. In addition, the IC50 in data set [3] (MKN-45, 72 h, CCK-8, 72 h) is 325 nM; in data set [3] (MKN-45, running text), less than 500 nM; in data set [4] (setting [12]) it was 412 nM; in data set [4] (setting [13]) it was less than 1000 nM; in data set [4] (listed as (Z)-3,4,5-trimethoxy-4′-ethoxy-3′-aminosulfamatestilbene), less than 500 nM; in [6] (setting [14]) it was 229 nM. Further, the IC50 in data set [6] (A549, read-out: IC50 A549) was less than 500 nM; in [7] (MGC-803, 72 h, CCK-8, 72 h) it was 267 nM; in data set [7] (MGC-803, running text), less than 500 nM. This compound also showed an LD50 at 14 days in data set [5] of 101 mg/kg. Also, in the data set with sarcoma S180, the tumor observation result is reported as “shrinking trend”. Moreover, the “Inhibition rate (tumor weight)” value in the data set on sarcoma S180 came to 40%.
A word on the melting point: it is the temperature of the solid-liquid transition. `COc1cc(/C=C\c2ccc(OC(F)F)c(OS(N)(=O)=O)c2)cc(OC)c1OC` [Compound A3-1, (Z)-3,4,5-trimethoxy-4′-difluoromethoxy-3′-sulfamate stilbene] displayed a melting point of 161.6 to 162.9 °C. The IC50 in the data set on Tubulin came to 1800 nM. The IC50 in data set [1] (Homo sapiens, HCT-116, 72 h, read-out: IC50 HTC116) is 9110 nM. Further, in [2] (Homo sapiens, HeLa, 72 h, read-out: IC50 Hela), the half-maximal inhibitory concentration (IC50) worked out at 7820 nM. Moreover, the IC50 in data set [3] (MKN-45, 72 h) came to 9000 nM. Besides, the IC50 in data set [4] (Homo sapiens, HepG2, 72 h) turned out to be 4800 nM. For the same compound, the IC50 in data set [6] (A549, 72 h, read-out: IC50 A549) is 5210 nM. The IC50 in data set [7] (MGC-803, 72 h) was 12500 nM. The IC50 on Arylsulfatase was 4640 nM.
